Assay [1] has as its target T1, human PPARδ (Homo sapiens, UniProt Q03181).
T1 sequence (Q03181 1-441): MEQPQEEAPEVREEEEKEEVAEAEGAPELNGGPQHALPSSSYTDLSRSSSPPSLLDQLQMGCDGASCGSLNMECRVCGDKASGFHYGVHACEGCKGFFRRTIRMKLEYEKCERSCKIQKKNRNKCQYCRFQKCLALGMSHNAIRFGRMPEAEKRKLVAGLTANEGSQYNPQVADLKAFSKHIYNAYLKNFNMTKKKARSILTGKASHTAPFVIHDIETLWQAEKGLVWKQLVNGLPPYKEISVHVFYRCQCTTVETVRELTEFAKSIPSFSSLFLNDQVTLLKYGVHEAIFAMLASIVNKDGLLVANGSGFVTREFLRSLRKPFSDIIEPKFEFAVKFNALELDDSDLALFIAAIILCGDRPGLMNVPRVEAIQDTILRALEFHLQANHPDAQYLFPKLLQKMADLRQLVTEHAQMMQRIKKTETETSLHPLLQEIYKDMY
As to the kind of experiment: PPARδ competition binding assay. The source says:
The term ligand throughout this application should be understood to include an agonist, partial agonist or antagonist of LXR. The ligand may be selective for LXRα or LXRβ, or it may have mixed binding affinity for both LXRα and LXRβ. Particularly, compounds within the scope of this invention include those which have greater selectivity as determined by binding affinity for LXRα and/or LXRβ receptors than they have for each of the PPARα, γ and δ receptors.

The target of assay [2] is T2, human GST-LXRβ ligand binding domain receptor (Homo sapiens, UniProt P55055).
T2 construct: human LXRβ (amino acids 149-455) were subcloned into the pGEX-KT expression vector; made in house; host or cells: E. coli (pGEX-KT vector)
T2 sequence (P55055 149-455): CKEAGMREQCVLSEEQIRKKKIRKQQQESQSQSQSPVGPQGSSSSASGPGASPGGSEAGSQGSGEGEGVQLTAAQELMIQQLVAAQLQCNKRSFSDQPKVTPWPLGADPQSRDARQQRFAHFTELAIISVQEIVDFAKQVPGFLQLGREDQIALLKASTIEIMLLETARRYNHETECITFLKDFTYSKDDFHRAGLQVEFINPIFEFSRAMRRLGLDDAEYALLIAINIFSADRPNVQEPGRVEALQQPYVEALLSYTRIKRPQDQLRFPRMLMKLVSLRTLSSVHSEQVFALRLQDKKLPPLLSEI
As to the kind of experiment: Radioligand competition binding scintillation proximity assay, LXRβ. The source says:
Radioligand Competition Binding Scintillation Proximity Assays:
Preparation of Recombinant Human LXRα and LXRβ:
Human LXRα and LXRβ were expressed as GST-fusion proteins in E. coli. The ligand binding domain cDNAs for human LXRα (amino acids 164-447) and human LXRβ (amino acids 149-455) were subcloned into the pGEX-KT expression vector (Pharmacia). E. coli containing the respective plasmids were propagated, induced, and harvested by centrifugation. The resuspended pellet was broken in a French press and debris was removed by centrifugation. Recombinant human LXR receptors were purified by affinity chromatography on glutathione sepharose and receptor was eluted with glutathione. Glycerol was added to a final concentration of 50% to stabilize the receptor and aliquots were stored at −80° C.
After incubation for ˜16 h at 15° C. with shaking, the assay plates were counted in a Packard Topcount.
On the technique in general: Displacement assays read how much labelled ligand stays bound in the presence of the test substance.

The test system of assay [3] is ABC1 mRNA. As to the kind of experiment: Induction of ABC1 mRNA levels in THP-1 macrophages. The format is cell-based. As to conditions: Homo sapiens, ABC-1, 0.10 μM, 6 hours, vs DMSO control, read-out: Fold Induction of ABC1 mRNA (Mean ± SEM). As to the method: Induction of ABC1 mRNA levels
Cultured human THP-1 cells were used. All cell culture incubations were performed at 37° C. under 95% air/5% carbon dioxide. Cells were grown in Complete RPMI medium plus 10% FCS (Fetal Calf Serum). Complete RPMI medium is defined as RPMI medium (Sigma Cat.# R8005) containing […], 1 mM Na Pyruvate, 2 mM L-Glutamine, and Antibiotic-Antimyotic Solution (Sigma Cat.# A9909: 100U/ml Penicillin, 0.1 mg/ml Streptomycin, 0.251l/ml Amphotericin B). Cells were differentiated into macrophages by incubation in Complete RPMI medium plus 10% FCS (Fetal Calf Serum) plus 100 nM tetradecanoyl phorbol acetate for three days. After differentiation, the THP-1 macrophages were incubated in Complete RPMI medium plus 10% FCS (Fetal Calf Serum) with the test LXR agonist. After 6 hours at 37° C., the cells were harvested and total RNA prepared using the phenol/guanidine isothiocyanate method as supplied and described by Molecular Research Center, Inc. (TRI REAGENTφ Cat. No. TR 118). ABC1 mRNA levels in the total RNA were measured using the TaqMan® mRNA quantitation system, following protocols published by the manufacturer (Perkin-Elmer). The oligonucleotide PCR primers used to detect ABC1 were:
The oligonucleotide probe used was:
ABC1 mRNA levels in each sample were normalized to the mRNA levels for the 23 kDa highly basic protein. […]

Assay [4] relates to THP-1 macrophages. The assay is described as follows: Stimulation of cholesterol efflux from cultured THP-1 macrophages. Format: cell-based, human. As to conditions: 24 hours, 10 μg/ml apoA-I acceptor, mean±SEM, DMSO control 9.9 ± 0.5. The source says: Stimulation of Cholesterol Efflux from Cultured Cells
Patients with Tangier disease have mutations in the ABC1 gene and have very low HDL levels. Cultured cells from these patients are defective in cholesterol efflux (Francis et al. (1995) J. Clin. Invest. 96:78-87). Therefore, induction of ABC1 mRNA should lead to increased cholesterol efflux and increased HDL levels (Francis et al. (1999) Clinica Chimica Acta 286:219-230). TIIP-1 cells were used to determine whether induction of ABC1 mRNA by Compound 1 would increase cholesterol efflux. Specifically, cultured human THP-1 cells were stimulated to differentiate into macrophages by incubation with 100 nM tetradecanoyl phorbol acetate for three days, as described above. After differentiation, the TUP-1 macrophages were labeled with ^3H-cholesterol by incubation for 24 hours with 10 μCi/ml ^3H-cholesterol in Complete RPMI media containing 0.1% lipid-free bovine serum albumin (BSA) plus 100 nM tetradecanoyl phorbol acetate. After labeling, the cells were incubated for 24 hours in Complete RPMI media with 0.1% lipid-free bovine serum albumin (BSA) to allow for equilibration of cellular cholesterol pools. Cholesterol efflux was then measured over the following 24 hours by incubating the cells in Complete RPMI media containing 10 μg/ml of apoA-I as cholesterol acceptor, and either Compound 1 or DMSO as control.

For `CC(=O)Oc1ccc2c(c1)[C@@]1(C)CCC[C@](C)(C(=O)OC(=O)[C@@]3(C)CCC[C@]4(C)c5cc(OC(C)=O)ccc5CC[C@@H]34)[C@@H]1CC2` [Compound 1], the IC50 (in general, the concentration that inhibits the measured activity by half) was more than 10 µM in assay [1] and 0.04 µM in assay [2]. For the same molecule, the Ki (as a rule, a dissociation constant, usually derived from enzyme kinetics or from competition with a known ligand) in assay [2] (read-out: LXRβ calculated Ki) is approximately 0.014 µM. The fold induction at 0.1 µM in assay [3] came to 6.9 ± 0.6. The figures for the “Cholesterol efflux (% of cell contents)” value in assay [4] (0.02 μM) and in assay [4] (2.5 μM) were 14.6 ± 0.5 % of cell contents and 17.1 ± 0.6 % of cell contents, respectively.

Source of the values: patent US20030086923A1, “Method for the prevention and/or treatment of atherosclerosis” (priority 1999, published 2003).
